Source: US20180193330A1, “ALKYLATED TETRAHYDROISOQUINOLINES FOR BINDING TO CENTRAL NERVOUS SYSTEM RECEPTORS” (Florida A&M University, priority 2017, published 2018)
Where a name gives a salt, the structure may show the parent alone. Read-outs that look alike come from different tables or passages of the source. Blank lines part the entries; values can stand above or below the molecule they belong to.

How the values were obtained:
[1] = biological target: histamine H1 receptor (Homo sapiens, UniProt P35367); experiment: Receptor binding affinity at histamine H1 (NIMH-PDSP radioligand binding)
Chain of histamine H1 receptor (P35367 whole entry, species assumed): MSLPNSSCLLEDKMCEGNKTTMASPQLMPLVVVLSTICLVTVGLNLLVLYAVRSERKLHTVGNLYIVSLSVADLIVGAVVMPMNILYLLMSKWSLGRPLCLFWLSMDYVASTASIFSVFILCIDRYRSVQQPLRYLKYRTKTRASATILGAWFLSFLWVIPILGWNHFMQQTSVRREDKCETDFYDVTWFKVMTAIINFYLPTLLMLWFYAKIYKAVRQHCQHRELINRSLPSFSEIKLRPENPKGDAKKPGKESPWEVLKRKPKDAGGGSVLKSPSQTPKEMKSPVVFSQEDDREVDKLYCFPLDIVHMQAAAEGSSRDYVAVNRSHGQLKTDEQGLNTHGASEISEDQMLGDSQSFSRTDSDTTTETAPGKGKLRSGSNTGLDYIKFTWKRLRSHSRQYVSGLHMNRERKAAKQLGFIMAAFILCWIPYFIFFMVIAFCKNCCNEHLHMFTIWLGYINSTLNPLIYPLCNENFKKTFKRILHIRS

[2] = biological target: T1, 5-HT1A receptor (Homo sapiens, UniProt P08908); experiment: Receptor binding affinity at 5-HT1A (NIMH-PDSP radioligand binding)
T1 sequence (P08908 1-422): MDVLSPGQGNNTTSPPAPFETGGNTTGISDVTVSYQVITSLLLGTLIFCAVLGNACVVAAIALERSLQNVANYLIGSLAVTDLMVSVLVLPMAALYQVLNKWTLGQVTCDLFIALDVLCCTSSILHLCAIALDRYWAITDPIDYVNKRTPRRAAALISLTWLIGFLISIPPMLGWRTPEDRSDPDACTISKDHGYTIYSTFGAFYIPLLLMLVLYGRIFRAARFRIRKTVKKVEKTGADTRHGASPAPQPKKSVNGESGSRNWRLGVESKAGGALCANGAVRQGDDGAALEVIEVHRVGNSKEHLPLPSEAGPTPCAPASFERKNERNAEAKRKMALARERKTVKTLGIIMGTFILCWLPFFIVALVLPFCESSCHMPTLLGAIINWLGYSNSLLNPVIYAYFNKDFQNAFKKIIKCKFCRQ

[3] = biological target: D3 receptor (Homo sapiens, UniProt P35462); experiment: Receptor binding affinity at dopamine D3 (NIMH-PDSP radioligand binding)
Chain of D3 receptor (P35462 whole entry): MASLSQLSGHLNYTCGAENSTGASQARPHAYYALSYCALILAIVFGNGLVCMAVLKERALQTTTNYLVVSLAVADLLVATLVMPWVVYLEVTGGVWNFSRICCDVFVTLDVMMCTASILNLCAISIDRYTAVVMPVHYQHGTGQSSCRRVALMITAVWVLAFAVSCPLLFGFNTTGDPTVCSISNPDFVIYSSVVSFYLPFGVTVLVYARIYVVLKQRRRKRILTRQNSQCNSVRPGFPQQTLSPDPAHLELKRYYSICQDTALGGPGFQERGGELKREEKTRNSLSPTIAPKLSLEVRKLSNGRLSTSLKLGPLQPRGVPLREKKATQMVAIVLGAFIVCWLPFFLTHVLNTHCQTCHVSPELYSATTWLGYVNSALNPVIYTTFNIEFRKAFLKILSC

[4] = biological target: 5-HT2B receptor (Homo sapiens, UniProt P41595); experiment: Receptor binding affinity at 5-HT2B (NIMH-PDSP radioligand binding)
Chain of 5-HT2B receptor (P41595 whole entry): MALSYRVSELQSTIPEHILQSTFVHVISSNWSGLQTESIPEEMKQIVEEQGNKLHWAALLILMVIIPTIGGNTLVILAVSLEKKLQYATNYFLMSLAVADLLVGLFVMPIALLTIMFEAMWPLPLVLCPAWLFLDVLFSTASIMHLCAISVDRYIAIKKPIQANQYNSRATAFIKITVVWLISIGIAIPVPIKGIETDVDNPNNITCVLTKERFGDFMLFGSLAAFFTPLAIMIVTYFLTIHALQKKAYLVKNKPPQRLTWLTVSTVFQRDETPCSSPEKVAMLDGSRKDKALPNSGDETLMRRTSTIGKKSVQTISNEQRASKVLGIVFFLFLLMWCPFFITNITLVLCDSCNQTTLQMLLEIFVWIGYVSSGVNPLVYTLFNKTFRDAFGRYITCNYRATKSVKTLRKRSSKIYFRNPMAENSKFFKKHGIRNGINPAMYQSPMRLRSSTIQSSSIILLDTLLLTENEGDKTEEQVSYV

[5] = biological target: 5-HT7 receptor (Homo sapiens, UniProt P34969); experiment: Receptor binding affinity at 5-HT7 (NIMH-PDSP radioligand binding)
Chain of 5-HT7 receptor (P34969 whole entry): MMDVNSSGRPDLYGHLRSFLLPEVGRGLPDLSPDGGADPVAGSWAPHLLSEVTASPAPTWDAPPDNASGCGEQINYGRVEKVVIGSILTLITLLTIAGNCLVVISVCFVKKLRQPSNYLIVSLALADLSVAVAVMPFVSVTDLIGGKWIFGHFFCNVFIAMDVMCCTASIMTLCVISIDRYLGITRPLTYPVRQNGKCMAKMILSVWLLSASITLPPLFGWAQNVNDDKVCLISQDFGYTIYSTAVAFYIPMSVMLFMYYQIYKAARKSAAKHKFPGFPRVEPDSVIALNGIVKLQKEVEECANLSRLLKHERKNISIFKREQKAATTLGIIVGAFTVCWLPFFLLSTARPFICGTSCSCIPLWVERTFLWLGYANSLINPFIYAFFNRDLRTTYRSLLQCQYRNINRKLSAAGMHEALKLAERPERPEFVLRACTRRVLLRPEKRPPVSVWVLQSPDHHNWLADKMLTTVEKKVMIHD

[6] = biological target: 5-HT2A receptor (Homo sapiens, UniProt P28223); experiment: Receptor binding affinity at 5-HT2A (NIMH-PDSP radioligand binding)
Chain of 5-HT2A receptor (P28223 whole entry): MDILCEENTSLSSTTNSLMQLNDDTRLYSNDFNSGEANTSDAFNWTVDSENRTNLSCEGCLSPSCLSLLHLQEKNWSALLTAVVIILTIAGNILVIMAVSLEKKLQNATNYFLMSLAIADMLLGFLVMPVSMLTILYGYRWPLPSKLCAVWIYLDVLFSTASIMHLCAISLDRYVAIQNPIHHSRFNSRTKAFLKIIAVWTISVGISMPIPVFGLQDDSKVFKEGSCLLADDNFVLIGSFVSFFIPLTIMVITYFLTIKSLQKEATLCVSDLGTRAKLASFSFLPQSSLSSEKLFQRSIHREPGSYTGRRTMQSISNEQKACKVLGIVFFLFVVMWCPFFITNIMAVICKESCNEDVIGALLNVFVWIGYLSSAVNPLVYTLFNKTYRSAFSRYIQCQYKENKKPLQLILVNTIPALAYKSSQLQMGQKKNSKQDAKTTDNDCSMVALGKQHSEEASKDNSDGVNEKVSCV

[7] = biological target: T2, 5-HT2C receptor (Homo sapiens, UniProt P28335); experiment: Receptor binding affinity at 5-HT2C (NIMH-PDSP radioligand binding); details: for Ki: read-out: Ki 5-HT2C
T2 sequence (P28335 33-458): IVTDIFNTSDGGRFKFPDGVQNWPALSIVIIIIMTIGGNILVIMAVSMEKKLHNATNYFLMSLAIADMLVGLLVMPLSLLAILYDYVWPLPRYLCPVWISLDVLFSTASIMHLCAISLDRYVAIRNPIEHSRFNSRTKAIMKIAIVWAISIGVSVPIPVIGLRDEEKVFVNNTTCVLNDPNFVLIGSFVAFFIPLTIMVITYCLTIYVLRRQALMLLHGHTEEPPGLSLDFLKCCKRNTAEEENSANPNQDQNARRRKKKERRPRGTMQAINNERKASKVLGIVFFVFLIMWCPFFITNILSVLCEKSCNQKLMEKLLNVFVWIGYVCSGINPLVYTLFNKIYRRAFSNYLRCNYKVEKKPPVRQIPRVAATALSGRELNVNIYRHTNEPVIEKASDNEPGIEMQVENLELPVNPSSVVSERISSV

[8] = biological target: T3, D4 receptor (Homo sapiens, UniProt P21917); experiment: Receptor binding affinity at dopamine D4 (NIMH-PDSP radioligand binding)
T3 sequence (P21917 1-419): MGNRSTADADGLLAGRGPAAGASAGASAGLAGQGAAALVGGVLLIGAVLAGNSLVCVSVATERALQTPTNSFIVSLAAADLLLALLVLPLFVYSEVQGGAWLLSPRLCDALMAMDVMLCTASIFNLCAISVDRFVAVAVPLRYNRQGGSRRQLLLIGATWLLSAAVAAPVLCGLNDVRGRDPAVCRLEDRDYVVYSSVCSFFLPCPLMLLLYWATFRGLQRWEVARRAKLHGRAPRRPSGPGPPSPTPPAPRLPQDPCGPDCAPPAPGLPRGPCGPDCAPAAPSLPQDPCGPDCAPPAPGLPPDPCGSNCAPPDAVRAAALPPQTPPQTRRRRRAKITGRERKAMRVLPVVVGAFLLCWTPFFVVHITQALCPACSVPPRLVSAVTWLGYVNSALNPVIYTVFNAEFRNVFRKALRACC

[9] = biological target: D2 receptor (Homo sapiens, UniProt P14416); experiment: Receptor binding affinity at dopamine D2 (NIMH-PDSP radioligand binding)
Chain of D2 receptor (P14416 whole entry): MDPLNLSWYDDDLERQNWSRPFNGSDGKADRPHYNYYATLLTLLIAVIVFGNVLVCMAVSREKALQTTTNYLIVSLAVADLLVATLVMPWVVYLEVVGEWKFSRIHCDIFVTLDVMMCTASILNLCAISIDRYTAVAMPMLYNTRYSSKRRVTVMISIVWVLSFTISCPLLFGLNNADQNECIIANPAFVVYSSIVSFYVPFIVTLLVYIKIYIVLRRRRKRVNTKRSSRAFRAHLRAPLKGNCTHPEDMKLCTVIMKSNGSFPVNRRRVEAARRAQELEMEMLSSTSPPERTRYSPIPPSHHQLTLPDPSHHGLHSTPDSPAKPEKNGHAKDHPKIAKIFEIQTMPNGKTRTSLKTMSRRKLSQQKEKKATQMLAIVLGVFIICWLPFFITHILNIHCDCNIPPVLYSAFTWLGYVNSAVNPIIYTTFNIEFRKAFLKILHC

[10] = Table 5, Group 3 analogs, Ki without SEM within 20% of mean

SMILES: O=C1c2ccccc2C(=O)N1CCCCN1Cc2ccccc2C1 [Compound 3, 2-(4-(Isoindolin-2-yl)butyl)isoindoline-1,3-dione]
Ki H1 [1]: MTA (MTA = Missed 50% of threshold inhibition.)
Ki 5-HT1A [2]: MTA (MTA = Missed 50% of threshold inhibition.)

SMILES: Br.c1ccc2c(c1)CCN(CCCc1nc3ccccc3s1)C2 [Compound 1b, 2-(3-(3,4-dihydroisoquinolin-2(1H)-yl)propyl)benzo[d]thiazole hydrobromide]
Ki ([3]; Table 3, Group 1 analogs): 0.08 µM
Ki ([4]; Table 3, Group 1 analogs): 0.018 µM
pKi ± SEM H1 ([1]; Table 3, Group 1 analogs): (6.09 ± 0.08)
Ki ([5]; Table 3, Group 1 analogs): 0.037 µM
pKi ± SEM 5-HT2A ([6]; Table 3, Group 1 analogs): (5.69 ± 0.06)
pKi ± SEM 5-HT2C ([7]; Table 3, Group 1 analogs): (5.93 ± 0.05)
Ki ([2]; Table 3, Group 1 analogs): 0.095 µM
pKi ± SEM D4 ([8]; Table 3, Group 1 analogs): (7.39 ± 0.04)

SMILES: CC1(C)CC(=O)N(CCCCN2CCc3ccccc3C2)C(=O)C1.Cl [Compound 2d, 1-(4-(3,4-dihydroisoquinolin-2(1H)-yl)butyl)-4,4-dimethylpiperidine-2,6-dione hydrochloride]
Ki ([3]; Table 4, Group 2 analogs): 1.65 µM
pKi ± SEM D3 ([3]; Table 4, Group 2 analogs): (5.8 ± 0.1)

Ki ([7]; Table 1, FIG. 7 analogs): 0.0082 µM
SMILES: O=C(CCCN1CCc2ccccc2C1)c1ccc(O)cc1 [Compound 15, 4-(3,4-Dihydroisoquinolin-2(1H)-yl)-1-(4-hydroxyphenyl) butan-1-one hydrochloride]

Ki ([3]; Table 3, Group 1 analogs): 2.18 µM
Ki ([9]; Table 3, Group 1 analogs): 0.915 µM
pKi ± SEM D2 ([9]; Table 3, Group 1 analogs): 6.09 ± 0.09
Ki ([1]; Table 3, Group 1 analogs): 0.29 ± 0.04 µM
Ki ([5]; Table 3, Group 1 analogs): 0.091 µM
pKi ± SEM 5-HT1A ([2]; Table 3, Group 1 analogs): 7.19 ± 0.07
pKi ± SEM D4 ([8]; Table 3, Group 1 analogs): 6.9 ± 0.07
SMILES: c1ccc2c(c1)CCN(CCCc1nc3ccccc3[nH]1)C2 [Compound 1d, 2-(3-(1H-benzo[d]imidazol-2-yl)propyl)-1,2,3,4-tetrahydroisoquinoline]

SMILES: Cl.O=C(CCCN1CCc2ccccc2CC1)c1ccc(Cl)cc1 [Compound 3f, 1-(4-Chlorophenyl)-4-(4,5-dihydro-1H-benzo[d]azepin-3(2H)-yl)butan-1-one hydrochloride]
Ki [3]: 0.106 µM
pKi ± SEM 5-HT2B ([4]; Table 5, Group 3 analogs): (6.26 ± 0.05)
pKi ± SEM H1 ([1]; Table 5, Group 3 analogs): (6 ± 0.3)
Ki [1, 10]: 1.09 µM
pKi ± SEM 5-HT7 ([5]; Table 5, Group 3 analogs): (6.68 ± 0.05)
Ki [5, 10]: 0.138 µM
pKi ± SEM 5-HT2A ([6]; Table 5, Group 3 analogs): (6.55 ± 0.03)
pKi ± SEM 5-HT2C ([7]; Table 5, Group 3 analogs): (6.21 ± 0.07)
Ki [2, 10]: 0.214 µM
pKi ± SEM D4 ([8]; Table 5, Group 3 analogs): (7.09 ± 0.04)

melting point: 192 to 193 °C
SMILES: Cl.O=C(CCCN1CCCCc2ccccc21)c1ccc(Cl)cc1 [Compound 3d, 1-(4-Chlorophenyl)-4-(2,3,4,5-tetrahydro-1H-benzo[b]azepin-1-yl)butan-1-one hydrochloride]

SMILES: O=C(CCCN1CCCc2ccccc21)c1ccc(Cl)cc1 [Compound 3c, 1-(4-Chlorophenyl)-4-(3,4-dihydroquinolin-1(2H)-yl) butan-1-one]
melting point: 192 to 193 °C
Ki [7]: > 10 µM

SMILES: COc1cc2c(cc1OC)CN(CCCCc1nc3cc(Cl)ccc3s1)CC2.Cl [Compound 1i, 5-Chloro-2-(4-(6,7-dimethoxy-3,4-dihydroisoquinolin-2(1H)-yl)butyl)benzo[d]thiazole hydrochloride]
pKi ± SEM D3 [3]: (5.97 ± 0.07)
pKi ± SEM 5-HT2B ([4]; Table 3, Group 1 analogs): (8.15 ± 0.08)
pKi ± SEM D2 [9]: (6.38 ± 0.09)
Ki ([1]; Table 3, Group 1 analogs): 0.327 µM
pKi ± SEM 5-HT7 [5]: (7.17 ± 0.06)
Ki ([6]; Table 3, Group 1 analogs): 0.667 µM
pKi ± SEM 5-HT2A ([6]; Table 3, Group 1 analogs): (6.2 ± 0.1)
pKi ± SEM 5-HT2C ([7]; Table 3, Group 1 analogs): (6.48 ± 0.08)
pKi ± SEM 5-HT1A ([2]; Table 3, Group 1 analogs): (8 ± 0.05)
pKi ± SEM D4 ([8]; Table 3, Group 1 analogs): (6.57 ± 0.07)

Ki ([3]; Table 4, Group 2 analogs): 0.088 µM
pKi ± SEM D3 ([3]; Table 4, Group 2 analogs): (7.05 ± 0.09)
pKi ± SEM 5-HT2B ([4]; Table 4, Group 2 analogs): (6.83 ± 0.07)
pKi ± SEM 5-HT7 ([5]; Table 4, Group 2 analogs): (6.88 ± 0.07)
Ki ([6]; Table 4, Group 2 analogs): 1.87 µM
pKi ± SEM D4 ([8]; Table 4, Group 2 analogs): (6.71 ± 0.04)
SMILES: C1=C(CCN2CCc3ccccc3C2)Cc2ccccc21 [Compound 2a, 2-(2-(1H-inden-2-yl)ethyl)-1,2,3,4-tetrahydroisoquinoline]

SMILES: Cl.O=C(CCCN1CCc2ccccc2C1)c1ccc(Cl)cc1 [Compound 16, 1-(4-Chlorophenyl)-4-(3,4-dihydroisoquinolin-2(1H)-yl) butan-1-one hydrochloride]
melting point: 209 to 210 °C
